Source: patent US20100035932A1, “NOVEL FORMYL PEPTIDE RECEPTOR LIKE 1 AGONISTS THAT INDUCE MACROPHAGE TUMOR NECROSIS FACTOR ALPHA AND COMPUTATIONAL STRUCTURE-ACTIVITY RELATIONSHIP ANALYSIS OF THEREOF” (priority 2008, published 2010)
Where two headings read alike, the source gives them in different places.

What was measured:
human neutrophils [1] = experiment: Ca2+ mobilization in human neutrophils (FLIPR Calcium 3); conditions: Neutrophil
J774.A1 macrophages [2] = experiment: TNF-α production in J774.A1 macrophages (ELISA); type: cell-based, murine; conditions: for fold induction at 50 µM: Mus musculus, J774.A1, 24 h, relative fold of activation compared to vehicle (DMSO) control for 50 μM compound, N.A. = no activity was observed, read-out: TNF-α production
[3] = test system: human monocyte-derived macrophages; experiment: TNF-α production in human monocyte-derived macrophages (ELISA); type: cell-based; conditions: 24 hr, various concentrations
Method: (§1) Cells were treated for 24 hr with DMSO control, test compound, or LPS and mouse TNF-α or IL-6 and human TNF-α enzyme-linked immunosorbent assay (ELISA) kits (BD Biosciences Pharmigen) were used to detect these cytokines in the cell supernatants. Cytokine concentration was determined by extrapolation from the TNF-α/IL-6 standard curve, according to the manufacturer's protocol.
(§2) For treatments, cells were plated in 96-well microtiter plates at 2×10^5 cells/well (J774.A1, MonoMac6) or 6×10^4 cells/well (human monocyte-derived macrophages) using their respective culture media, except FBS was reduced to 3% (v/v). After incubation overnight (5% CO2, 37° C.), the media were removed and replaced with fresh media containing test compounds.

J774.A1 cells = experiment: Cytotoxicity assay (CellTiter-Glo); type: cell-based, murine; conditions: J774.A1, 24 hr
Method: Cytotoxicity was analyzed with a CellTiter-Glo Luminescent Cell Viability Assay Kit (Promega, Inc., Madison, Wis.), according to the manufacturer's protocol. Briefly, J774.A1 cells were cultured at a density of 3×10^4 cells/well with the test compounds for 24 hr at 37° C. and 5% CO2, substrate was added, and luminescence signal in the samples was analyzed with a Fluoroscan Ascent FL.

[4] = test system: human MonoMac6 macrophages; experiment: TNF-α production in MonoMac6 cells (ELISA); type: cell-based; conditions: 24 hr, various concentrations
FPRL1 = molecular target: T1, FPRL1 (Homo sapiens, UniProt P25090); experiment: Ca2+ mobilization in RBL-FPRL1 cells; type: cell-based
T1 construct: expressed in transfected cells; host or cells: rat basophilic leukemia RBL-2H3 cells (RBL-FPRL1)
T1 sequence (P25090 1-351): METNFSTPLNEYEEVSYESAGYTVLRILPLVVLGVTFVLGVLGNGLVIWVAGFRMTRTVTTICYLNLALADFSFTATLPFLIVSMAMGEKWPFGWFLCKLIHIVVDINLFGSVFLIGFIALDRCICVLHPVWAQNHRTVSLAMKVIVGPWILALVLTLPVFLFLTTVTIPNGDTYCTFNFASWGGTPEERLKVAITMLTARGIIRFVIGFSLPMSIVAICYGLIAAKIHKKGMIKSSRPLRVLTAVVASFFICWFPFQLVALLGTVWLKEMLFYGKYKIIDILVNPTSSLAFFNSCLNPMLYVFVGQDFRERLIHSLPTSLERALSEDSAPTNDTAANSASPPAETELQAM

J774.A1 macrophages [5] = experiment: IL-6 production in J774.A1 macrophages (ELISA); type: cell-based, murine; conditions: J774.A1, 24 hr
Method: as §1, §2

murine neutrophils = experiment: Chemotaxis assay, murine neutrophils; type: cell-based; conditions: percent of response induced by 50 nM KC
human neutrophils [6] = experiment: ROS production in human neutrophils (L-012 luminescence); type: cell-based; conditions: Neutrophil, concentration that enhanced ROS production by 50% above background, read-out: ROS Production AC50, Human PMN
Method: J774.A1 macrophages were plated at density of 1.5×10^5 cells/well in wells of 96-well flat-bottom white microtiter plates (Corning Incorporated, Costar). After 16 hr (5% CO2, 37° C.), the media was aspirated, and test compounds or vehicle (final DMSO concentration of 1%) were added in fresh media (DMEM without phenol red, supplemented with 3% (v/v) FBS). After 5 min, the media was replaced by HBSS+ containing 4 μM L-012 and 8 μg/ml HRP, and luminescence was monitored for 120 min (2-min intervals) at 37° C. using a Fluoroscan Ascent FL microtiter plate reader (Thermo Electron, Waltham, Mass.). The curve of light intensity (in relative luminescence units) was plotted against time, and the area under the curve was calculated as total luminescence. The percent activation of ROS was calculated as follows: % activation=(sample-DMSO control)/DMSO control×100. The minimal compound concentration that enhanced ROS production by 50% above background control cells (AC50) was determined by graphing the % activation of ROS vs. log [test compound]. Each curve was determined using five to seven compound concentrations. Human neutrophils were plated at density of 5×10^5 cells/well in wells of 96-well flatbottom white microtiter plates, and compounds under investigation or vehicle (final DMSO concentration of 1%) were added. After 5 min, the media was replaced by HBSS+ containing […] L-012, and luminescence was monitored for 120 min (2-min intervals) at 37° C. using a Fluoroscan Ascent FL microtiter plate reader. The results were analysed as described above to determine % activation and AC50 values.

human neutrophils [7] = experiment: Chemotaxis assay, human neutrophils; type: cell-based; conditions: percent of response induced by 50 nM IL-8
J774.A1 macrophages [8] = experiment: ROS production in J774.A1 macrophages (L-012 luminescence); type: cell-based; conditions: Mus musculus, concentration that enhanced ROS production by 50% above background, read-out: ROS Production AC50, Murine Mφ
Method: (§3) Murine macrophage J774.A1 cells were cultured in DMEM supplemented with 10% (v/v) heat-inactivated fetal bovine serum (FBS), 10 mM HEPES, 100 μg/ml streptomycin, and 100 U/ml penicillin. Cells were grown to confluence in sterile tissue culture flasks and gently detached by scraping. Human monocyte/macrophage MonoMac6 cells (DSMZ, Germany) were cultured in RPMI 1640 supplemented with 10% (v/v) FBS, 10 μg/ml bovine insulin, 100 μg/ml streptomycin, and 100 U/ml penicillin. Rat basophilic leukemia (RBL-2H3) cells transfected with human FPR (RBL-FPR) or FPRL1 (RBL-FPRL1) were cultured in DMEM supplemented with 20% (v/v) FBS, 10 mM HEPES, 100 μg/ml streptomycin, and 100 U/ml penicillin, as described previously (Nanamori et al., 2004). Human monocytic THP-1 cells were cultured in RPMI 1640 medium supplemented with 10% (v/v) FBS, 100 μg/ml streptomycin, and 100 U/ml penicillin. All cell cultures were grown at 37° C. in a humidified atmosphere containing 5% CO2. Cell number and viability were assessed microscopically using trypan blue exclusion.
J774.A1 macrophages were plated at density of 1.5×10^5 cells/well in wells of 96-well flat-bottom white microtiter plates (Corning Incorporated, Costar). […] After 5 min, the media was replaced by HBSS+ containing 4 μM L-012 and 8 μg/ml HRP, and luminescence was monitored for 120 min (2-min intervals) at 37° C. using a Fluoroscan Ascent FL microtiter plate reader (Thermo Electron, Waltham, Mass.). The curve of light intensity (in relative luminescence units) was plotted against time, and the area under the curve was calculated as total luminescence. The percent activation of ROS was calculated as follows: % activation=(sample-DMSO control)/DMSO control×100. The minimal compound concentration that enhanced ROS production by 50% above background control cells (AC50) was determined by graphing the % activation of ROS vs. log [test compound]. Each curve was determined using five to seven compound concentrations. […] The results were analysed as described above to determine % activation and AC50 values.

[9] = test system: murine peritoneal macrophages; experiment: TNF-α production in murine peritoneal macrophages (ELISA); type: cell-based; conditions: 24 hr, various concentrations
Method: Bone marrow leukocytes were flushed from tibias and femurs of BALB/c mice with HBSS− supplemented with 0.1% BSA and 1% glucose and the neutrophils were purified on Percoll density gradients, as previously described (Schepetkin et al., 2007). Peritoneal macrophages were isolated from BALB/c mice 4 days after intraperitoneal injection of 1 ml saline containing 100 μg concanavalin A, as described previously (Schepetkin et al., 2005). Peritoneal exudate cells were suspended in RPMI 1640 containing 10% (v/v) FBS with antibiotics (penicillin and streptomycin) and incubated at 37° C. in 100 mm tissue culture dishes for 1 h. Adherent peritoneal macrophages were harvested and cultured with the compounds under investigation for 24 hr at 37° C. and 5% CO2.
as §1

[10] = test system: human monocytic cells THP-1; experiment: TNF-α production in THP-1 cells (ELISA); type: cell-based; conditions: 24 hr, various concentrations
Method: as §3, with “All cell cultures were grown at 37° C. in a humidified atmosphere containing 5% CO2.” left out
as §1

J774.A1 macrophages [11] = experiment: cells; conditions: Mus musculus, J774.A1, read-out: Ca2+ Mobilization EC50, Murine Mφ
Method: Murine macrophage J774.A1 cells were cultured in DMEM supplemented with 10% (v/v) heat-inactivated fetal bovine serum (FBS), 10 mM HEPES, 100 μg/ml streptomycin, and 100 U/ml penicillin. Cells were grown to confluence in sterile tissue culture flasks and gently detached by scraping. […] All cell cultures were grown at 37° C. in a humidified atmosphere containing 5% CO2. Cell number and viability were assessed microscopically using trypan blue exclusion.

SMILES: O=C(N/N=C/c1ccco1)c1ccccc1 [Compound 39]
- EC50 (human neutrophils [1]; read-out: [Ca2+]i EC50): 28.4 µM
- Determined class of macrophage TNF-α inducing activity (J774.A1 macrophages [2]; experimentally determined class): NA (inactive derivatives were placed in the nonactive group labeled “NA”)

SMILES: CN(C)c1ccc(/C=N\NC(=O)c2ccc([N+](=O)[O-])cc2)cc1 [Compound 4]
- EC50 (human neutrophils [1]; read-out: [Ca2+]i EC50): 9 µM
- fold induction at 50 µM (J774.A1 macrophages [2]): 20 to 25

SMILES: O=C(N/N=C/c1ccc(-c2cc(Cl)ccc2Cl)o1)c1ccc([N+](=O)[O-])cc1 [Compound 7]
- EC50 (human neutrophils [1]; read-out: [Ca2+]i EC50): 10 µM
- fold induction at 50 µM (J774.A1 macrophages [2]): < 5

SMILES: Cc1ccc(C(=O)N/N=C/c2ccc(-c3cccc(C(F)(F)F)c3)o2)cn1 [Compound 9]
- EC50 (human neutrophils [1]; read-out: [Ca2+]i EC50): 15.8 µM
- fold induction at 50 µM (J774.A1 macrophages [2]): < 5
- TNF-α production, primary screening of agonists AG 1-26 (J774.A1 macrophages [2]; murine J774.A1 macrophages): induced modest levels of TNF-α production

SMILES: CN(C)c1ccc(/C=N\NC(=O)c2ccccc2)cc1 [Compound 19]
- EC50 (human neutrophils [1]; read-out: [Ca2+]i EC50): 14.5 µM
- fold induction at 50 µM (J774.A1 macrophages [2]): < 2

SMILES: CCOc1cc(/C=N\NC(=O)c2ccc3c(c2)OCO3)cc(Br)c1O [Compound 18]
- EC50 (human neutrophils [1]; read-out: [Ca2+]i EC50): 12.2 µM
- fold induction at 50 µM (J774.A1 macrophages [2]): < 2

SMILES: O=C(N/N=C/c1ccc(-c2ccc(Cl)c(Cl)c2)o1)c1ccc2c(c1)OCO2 [Compound 8]
- EC50 (human neutrophils [1]; read-out: [Ca2+]i EC50): 11.9 µM
- fold induction at 50 µM (J774.A1 macrophages [2]): < 5

SMILES: O=C(N/N=C/c1ccc(-c2cccc(C(F)(F)F)c2)o1)c1ccc(F)cc1 [Compound 2, 4-fluoro-benzoic acid [5-(3-trifluoromethyl-phenyl)-2-furyl]methylene-hydrazide]
- TNF-α production in human monocyte-derived macrophages [3]: induced TNF-α production in a concentration-dependent manner
- Effect on cell viability (J774.A1 cells): had no effect on cell viability
- TNF-α production in MonoMac6 cells [4]: induced TNF-α production in a concentration-dependent manner
- EC50 (FPRL1): 18.3 µM
- IL-6 production (J774.A1 macrophages [5]): induced secretion of IL-6
- EC50 (human neutrophils [1]; read-out: Ca2+ Mobilization EC50, Human PMN): 0.6 ± 0.4 µM
- EC50 (human neutrophils [1]; read-out: [Ca2+]i EC50): 0.6 µM
- Chemotaxis (%), Murine PMN (murine neutrophils): 58.0 ± 1.4%
- AC50 (human neutrophils [6]): 200 ± 40 nM
- Chemotaxis (%), Human PMN (human neutrophils [7]): 91.3 ± 1.6%
- AC50 (J774.A1 macrophages [8]): 8.6 ± 2.7 µM
- TNF-α production in murine peritoneal macrophages [9]: induced TNF-α production in a concentration-dependent manner
- TNF-α production in THP-1 cells [10]: induced TNF-α production in a concentration-dependent manner
- fold induction at 50 µM (J774.A1 macrophages [2]): 30 to 40
- Effect of Boc-2 (FPR/FPRL1 antagonist) on compound-induced TNF-α production (J774.A1 macrophages [2]; pretreated 5 min with Boc 2 (40 μM), then 50 μM compound 24 hr): inhibited
- Effect of WRW4 (FPRL1 antagonist) on compound-induced TNF-α production (J774.A1 macrophages [2]; pretreated 5 min with WRW4 (10 μM), then 50 μM compound 24 hr): inhibited
- Effect of PTX on induced TNF-α production (J774.A1 macrophages [2]; pretreated 30 min with PTX (0.4 and 1 μg/ml), then Compound 50 μM or LPS 50 ng/ml for 12 hr): significantly inhibited
- Effect of ActD or CHX on compound-induced TNF-α production (J774.A1 macrophages [2]; pretreated with ActD 1 μg/ml or CHX 5 μg/ml 30 min, then 50 μM compound 12 hr): completely inhibited
- EC50 (J774.A1 macrophages [11]): 2300 ± 150 nM

SMILES: O=C(N/N=C/c1ccc(-c2ccc([N+](=O)[O-])cc2Cl)o1)c1ccc2c(c1)OCO2 [Compound 3]
- EC50 (human neutrophils [1]; read-out: [Ca2+]i EC50): 0.3 µM
- fold induction at 50 µM (J774.A1 macrophages [2]): 30 to 40
